Values of other authors as cited in patent US5583105A, “Oral pharmaceutical preparation” (Biogal Gyogyszerguar Rt, priority 1994, dated 1996).

Details: in water

CCOC(=O)CC(O)(CC(=O)OCC)C(=O)OCC [triethylcitrate, triethyl-citrate]
concentration of aqueous solution formed: 6.5%
